# Experimental data taken from ChEMBL document CHEMBL4196211, “In Vitro Mechanistic Study of the Anti-inflammatory Activity of a Quinoline Isolated from Spondias pinnata Bark” (J Nat Prod, 2018).
# The source made the active and inactive calls. No cut-off for these calls is given here.
# Experiments:
# RAW264.7 [1] = experiment: Inhibition of NF-kappaB in mouse RAW264.7 cells assessed as reduction in LPS-induced iNOS expression level pretreated for 6 hrs followed by LPS stimulation measured after 24 hrs by Western blot analysis; assay type: cell-based
# Mus musculus [2] = organism: Mus musculus; experiment: Effect on LPS-induced I-kappaB phosphorylation at 50 uM pretreated for 6 hrs followed by LPS stimulation measured after 2 hrs by Western blot analysis (reference value: 2.22)
# RAW264.7 [3] = experiment: Effect on beta-actin expression level in LPS-induced mouse RAW264.7 cells at 100 uM pretreated for 6 hrs followed by LPS stimulation measured after 24 hrs by Western blot analysis (reference value: 0.95); assay type: ADME, cell-based; conditions: raw264.7, 24 h
# RAW264.7 [4] = experiment: Inhibition of LPS-induced I-kappaB phosphorylation in mouse RAW264.7 cells pretreated for 6 hrs followed by LPS stimulation measured after 2 hrs by Western blot analysis; assay type: cell-based
# RAW264.7 [5] = experiment: Inhibition of NF-kappaB in mouse RAW264.7 cells assessed as LPS-induced iNOS expression level at 50 uM pretreated for 6 hrs followed by LPS stimulation measured after 24 hrs by Western blot analysis (reference value: 5.69); assay type: cell-based
# RAW264.7 [6] = experiment: Effect on beta-actin expression level in LPS-induced mouse RAW264.7 cells at 75 uM pretreated for 6 hrs followed by LPS stimulation measured after 2 hrs by Western blot analysis (reference value: 0.99); assay type: ADME, cell-based; conditions: raw264.7, 2 h
# RAW264.7 [7] = experiment: Antiinflammatory activity against mouse RAW264.7 cells assessed as inhibition of LPS-induced IL-1beta production at 50 to 100 uM pretreated for 6 hrs followed by LPS stimulation measured after 24 hrs by ELISA; assay type: functional, cell-based
# RAW264.7 [8] = experiment: Effect on LPS-induced I-kappaB level in mouse RAW264.7 cells at 50 uM pretreated for 6 hrs followed by LPS stimulation measured after 2 hrs by Western blot analysis (reference value: 0.44); assay type: cell-based
# RAW264.7 [9] = experiment: Inhibition of NF-kappaB in mouse RAW264.7 cells assessed as reduction in LPS-induced IL-1beta mRNA level at 50 to 100 uM by qRT-PCR analysis; assay type: cell-based
# RAW264.7 [10] = experiment: Inhibition of NF-kappaB in mouse RAW264.7 cells assessed as LPS-induced cytosolic NF-kappaB level at 100 uM pretreated for 6 hrs followed by LPS stimulation measured after 2 hrs by Western blot analysis (reference value: 0.13); assay type: cell-based
# RAW264.7 [11] = experiment: Antiinflammatory activity against mouse RAW264.7 cells assessed as inhibition of LPS-induced intracellular ROS production at 50 to 100 uM pretreated for 12 hrs followed by LPS stimulation measured after 24 hrs by DCF-DA probe based flow cytometry; assay type: functional, cell-based
# RAW264.7 [12] = experiment: Effect on tubulin expression level in LPS-induced mouse RAW264.7 cells at 100 uM pretreated for 6 hrs followed by LPS stimulation measured after 2 hrs by Western blot analysis (reference value: 1.02); assay type: ADME, cell-based; conditions: raw264.7, 2 h
# RAW264.7 [13] = experiment: Inhibition of NF-kappaB in mouse RAW264.7 cells assessed as LPS-induced nuclear NF-kappaB level at 100 uM pretreated for 6 hrs followed by LPS stimulation measured after 2 hrs by Western blot analysis (reference value: 6.77); assay type: cell-based
# RAW264.7 [14] = experiment: Effect on tubulin expression level in LPS-induced mouse RAW264.7 cells at 75 uM pretreated for 6 hrs followed by LPS stimulation measured after 2 hrs by Western blot analysis (reference value: 1.02); assay type: ADME, cell-based; conditions: raw264.7, 2 h
# RAW264.7 [15] = experiment: Inhibition of NF-kappaB in mouse RAW264.7 cells assessed as LPS-induced COX-2 expression level at 75 uM pretreated for 6 hrs followed by LPS stimulation measured after 24 hrs by Western blot analysis (reference value: 2.02); assay type: cell-based
# RAW264.7 [16] = experiment: Effect on beta-actin expression level in LPS-induced mouse RAW264.7 cells at 50 uM pretreated for 6 hrs followed by LPS stimulation measured after 24 hrs by Western blot analysis (reference value: 0.95); assay type: ADME, cell-based; conditions: raw264.7, 24 h
# RAW264.7 [17] = experiment: Inhibition of NF-kappaB in mouse RAW264.7 cells assessed as LPS-induced COX-2 expression level at 100 uM pretreated for 6 hrs followed by LPS stimulation measured after 24 hrs by Western blot analysis (reference value: 2.02); assay type: cell-based
# RAW264.7 [18] = experiment: Inhibition of NF-kappaB in mouse RAW264.7 cells assessed as LPS-induced COX-2 expression level at 50 uM pretreated for 6 hrs followed by LPS stimulation measured after 24 hrs by Western blot analysis (reference value: 2.02); assay type: cell-based
# RAW264.7 [19] = experiment: Inhibition of NF-kappaB nuclear localization in LPS-induced mouse RAW264.7 cells at 50 to 100 uM pretreated for 6 hrs followed by LPS stimulation measured after 2 hrs by DAPI/FITC staining based laser scanning confocal microscopy; assay type: cell-based
# RAW264.7 [20] = experiment: Antiinflammatory activity against mouse RAW264.7 cells assessed as inhibition of LPS-induced nitrite production at 100 uM pretreated for 6 hrs followed by LPS stimulation measured after 24 hrs by […]; assay type: functional, cell-based
# RAW264.7 [21] = experiment: Effect on LPS-induced I-kappaB level in mouse RAW264.7 cells at 100 uM pretreated for 6 hrs followed by LPS stimulation measured after 2 hrs by Western blot analysis (reference value: 0.44); assay type: cell-based
# RAW264.7 [22] = experiment: Antiinflammatory activity against mouse RAW264.7 cells assessed as inhibition of LPS-induced TNFalpha production at 100 uM pretreated for 6 hrs followed by LPS stimulation measured after 24 hrs by ELISA; assay type: functional, cell-based
# RAW264.7 [23] = experiment: Inhibition of NF-kappaB in mouse RAW264.7 cells assessed as reduction in LPS-induced TNFalpha mRNA level at 50 to 100 uM by qRT-PCR analysis; assay type: cell-based
# RAW264.7 [24] = experiment: Inhibition of NF-kappaB in mouse RAW264.7 cells assessed as LPS-induced cytosolic NF-kappaB level at 75 uM pretreated for 6 hrs followed by LPS stimulation measured after 2 hrs by Western blot analysis (reference value: 0.13); assay type: cell-based
# RAW264.7 [25] = experiment: Effect on tubulin expression level in LPS-induced mouse RAW264.7 cells at 50 uM pretreated for 6 hrs followed by LPS stimulation measured after 2 hrs by Western blot analysis (reference value: 1.02); assay type: ADME, cell-based; conditions: raw264.7, 2 h
# RAW264.7 [26] = experiment: Cytotoxicity against mouse RAW264.7 cells assessed as reduction in cell viability at 50 to 100 uM after 48 hrs by WST-1 assay; assay type: cell-based; conditions: raw264.7, 48 h
# RAW264.7 [27] = experiment: Inhibition of NF-kappaB in mouse RAW264.7 cells assessed as reduction in LPS-induced iNOS mRNA level at 50 to 100 uM by qRT-PCR analysis; assay type: cell-based
# RAW264.7 [28] = experiment: Inhibition of NF-kappaB in mouse RAW264.7 cells assessed as reduction in LPS-induced COX-2 mRNA level at 50 to 100 uM by qRT-PCR analysis; assay type: cell-based
# RAW264.7 [29] = experiment: Inhibition of NF-kappaB in mouse RAW264.7 cells assessed as LPS-induced nuclear NF-kappaB level at 50 uM pretreated for 6 hrs followed by LPS stimulation measured after 2 hrs by Western blot analysis (reference value: 6.77); assay type: cell-based
# Mus musculus [30] = organism: Mus musculus; experiment: Effect on LPS-induced I-kappaB phosphorylation at 100 uM pretreated for 6 hrs followed by LPS stimulation measured after 2 hrs by Western blot analysis (reference value: 2.22)
# RAW264.7 [31] = experiment: Inhibition of NF-kappaB in mouse RAW264.7 cells assessed as LPS-induced iNOS expression level at 70 uM pretreated for 6 hrs followed by LPS stimulation measured after 24 hrs by Western blot analysis (reference value: 5.69); assay type: cell-based
# Mus musculus [32] = organism: Mus musculus; experiment: Effect on LPS-induced I-kappaB phosphorylation at 75 uM pretreated for 6 hrs followed by LPS stimulation measured after 2 hrs by Western blot analysis (reference value: 2.22)
# RAW264.7 [33] = experiment: Inhibition of NF-kappaB in mouse RAW264.7 cells assessed as reduction in LPS-induced IL-6 mRNA level at 50 to 100 uM by qRT-PCR analysis; assay type: cell-based
# RAW264.7 [34] = experiment: Effect on LPS-induced I-kappaB level in mouse RAW264.7 cells at 75 uM pretreated for 6 hrs followed by LPS stimulation measured after 2 hrs by Western blot analysis (reference value: 0.44); assay type: cell-based
# RAW264.7 [35] = experiment: Antiinflammatory activity against mouse RAW264.7 cells assessed as inhibition of LPS-induced IL-6 production at 50 to 100 uM pretreated for 6 hrs followed by LPS stimulation measured after 24 hrs by ELISA; assay type: functional, cell-based
# RAW264.7 [36] = experiment: Inhibition of NF-kappaB in mouse RAW264.7 cells assessed as LPS-induced nuclear NF-kappaB level at 75 uM pretreated for 6 hrs followed by LPS stimulation measured after 2 hrs by Western blot analysis (reference value: 6.77); assay type: cell-based
# RAW264.7 [37] = experiment: Effect on beta-actin expression level in LPS-induced mouse RAW264.7 cells at 50 uM pretreated for 6 hrs followed by LPS stimulation measured after 2 hrs by Western blot analysis (reference value: 0.99); assay type: ADME, cell-based; conditions: raw264.7, 2 h
# RAW264.7 [38] = experiment: Inhibition of NF-kappaB in mouse RAW264.7 cells assessed as LPS-induced iNOS expression level at 100 uM pretreated for 6 hrs followed by LPS stimulation measured after 24 hrs by Western blot analysis (reference value: 5.69); assay type: cell-based
# RAW264.7 [39] = experiment: Effect on beta-actin expression level in LPS-induced mouse RAW264.7 cells at 100 uM pretreated for 6 hrs followed by LPS stimulation measured after 2 hrs by Western blot analysis (reference value: 0.99); assay type: ADME, cell-based; conditions: raw264.7, 2 h
# RAW264.7 [40] = experiment: Effect on beta-actin expression level in LPS-induced mouse RAW264.7 cells at 75 uM pretreated for 6 hrs followed by LPS stimulation measured after 24 hrs by Western blot analysis (reference value: 0.95); assay type: ADME, cell-based; conditions: raw264.7, 24 h
# RAW264.7 [41] = experiment: Inhibition of NF-kappaB in mouse RAW264.7 cells assessed as LPS-induced cytosolic NF-kappaB level at 50 uM pretreated for 6 hrs followed by LPS stimulation measured after 2 hrs by Western blot analysis (reference value: 0.13); assay type: cell-based
# RAW264.7 [42] = experiment: Antiinflammatory activity against mouse RAW264.7 cells assessed as inhibition of LPS-induced nitrite production at 20 uM pretreated for 6 hrs followed by LPS stimulation measured after 24 hrs by […]; assay type: functional, cell-based
# RAW264.7 [43] = experiment: Antiinflammatory activity against mouse RAW264.7 cells assessed as inhibition of LPS-induced IL-1beta production at 20 uM pretreated for 6 hrs followed by LPS stimulation measured after 24 hrs by ELISA; assay type: functional, cell-based
# RAW264.7 [44] = experiment: Antiinflammatory activity against mouse RAW264.7 cells assessed as inhibition of LPS-induced IL-6 production at 20 uM pretreated for 6 hrs followed by LPS stimulation measured after 24 hrs by ELISA; assay type: functional, cell-based
# RAW264.7 [45] = experiment: Antiinflammatory activity against mouse RAW264.7 cells assessed as inhibition of LPS-induced TNFalpha production at 20 uM pretreated for 6 hrs followed by LPS stimulation measured after 24 hrs by ELISA; assay type: functional, cell-based
compound,measurement,setting,value
COc1cc2ccc(=O)[nH]c2cc1O,inhibition,RAW264.7 [1],Dose-dependent effect
same,fold change (FC),Mus musculus [2],1.86
same,fold change (FC),RAW264.7 [3],0.96
same,inhibition,RAW264.7 [4],Dose-dependent effect
same,fold change (FC),RAW264.7 [5],3.4
same,fold change (FC),RAW264.7 [6],0.96
same,inhibition,RAW264.7 [7],Active
same,fold change (FC),RAW264.7 [8],0.64
same,inhibition,RAW264.7 [9],Active
same,fold change (FC),RAW264.7 [10],0.97
same,inhibition,RAW264.7 [11],Active
same,fold change (FC),RAW264.7 [12],1.01
same,fold change (FC),RAW264.7 [13],1.56
same,fold change (FC),RAW264.7 [14],0.96
same,fold change (FC),RAW264.7 [15],1.29
same,fold change (FC),RAW264.7 [16],0.95
same,fold change (FC),RAW264.7 [17],1.02
same,fold change (FC),RAW264.7 [18],1.72
same,inhibition,RAW264.7 [19],Active
same,inhibition,RAW264.7 [20],Active
same,fold change (FC),RAW264.7 [21],0.99
same,inhibition,RAW264.7 [22],Active
same,inhibition,RAW264.7 [23],Active
same,fold change (FC),RAW264.7 [24],0.91
same,fold change (FC),RAW264.7 [25],0.93
same,Activity,RAW264.7 [26],Non-Toxic
same,inhibition,RAW264.7 [27],Active
same,inhibition,RAW264.7 [28],Active
same,fold change (FC),RAW264.7 [29],5.25
same,fold change (FC),Mus musculus [30],1.05
same,fold change (FC),RAW264.7 [31],1.98
same,fold change (FC),Mus musculus [32],1.11
same,inhibition,RAW264.7 [33],Active
same,fold change (FC),RAW264.7 [34],0.85
same,inhibition,RAW264.7 [35],Active
same,fold change (FC),RAW264.7 [36],3.89
same,fold change (FC),RAW264.7 [37],0.94
same,fold change (FC),RAW264.7 [38],1.04
same,fold change (FC),RAW264.7 [39],1
same,fold change (FC),RAW264.7 [40],1
same,fold change (FC),RAW264.7 [41],0.3
C[C@@H]1C[C@H]2[C@@H]3CCC4=CC(=O)C=C[C@]4(C)[C@@]3(F)[C@@H](O)C[C@]2(C)[C@@]1(O)C(=O)CO,inhibition,RAW264.7 [42],Active
same,inhibition,RAW264.7 [43],Active
same,inhibition,RAW264.7 [44],Active
same,inhibition,RAW264.7 [45],Active
